Data on 1 compound can be found in PMC7948503, “Optimization of a peptide ligand for the adhesion GPCR ADGRG2 provides a potent tool to explore receptor biology” (The Journal of Biological Chemistry, 2020).

Non-standard residues stand in square brackets, D forms with d. Residues, ends and D or L forms follow the SMILES beside them. *: point of attachment. FITC = O=C1OC2(c3ccc(O)cc3Oc3cc(O)ccc32)c2ccc(NC(=S)*)cc21; Phe(4-Me) = Cc1ccc(C[C@H](N)C(=O)O)cc1

Common to all, as to assay: BRET binding of FITC-VPM-p15
(Bioluminescence resonance energy transfer reports proximity on the nanometre scale.)

Assay [1] addresses T1, Rluc-ADGRG2-ΔGPS-β S760A (Mus musculus, UniProt Q8CJ12, S774A).
T1 construct: the entire ECD (including the entire GPS motif) was removed (ADGRG2-ΔGPS-β); expressed in transfected cells; host or cells: HEK293
Conditions: mutant S760A. Here is the method: (§1) The binding capacities of ADGRG2 WT or its mutants for VPM-p15 were determined by BRET assay, which has been used in previous studies ([27], [28], [29]). We fused the N terminus of ADGRG2 with a Rluc fragment and coupled FITC to the C terminus of VPM-p15 to facilitate BRET measurement. We stimulated the HEK293 cells transfected with Rluc-ADGRG2-ΔGPS-β wildtype (WT) or mutants by increasing the concentration of FITC-conjugated VPM-p15, and their binding abilities were determined by fitting the data with the saturation curves.
(§2) In the detection of binding capacities of ADGRG2 WT or its mutants for VPM-p15, HEK293 cells were transfected with Rluc-ADGRG2-ΔGPS-β or mutants. Transfected cells were stimulated by increasing the concentration of FITC-conjugated VPM-p15. Binding capacities were determined by BRET, EC50 values of ADGRG2 WT and its mutants for binding VPM-p15 were calculated by GraphPad, and data were normalized by EC50 of WT.

The target in assay [2] is T2, Rluc-ADGRG2-ΔGPS-β V762A (Mus musculus, UniProt Q8CJ12, V776A).
T2 construct: the entire ECD (including the entire GPS motif) was removed (ADGRG2-ΔGPS-β); expressed in transfected cells; host or cells: HEK293
T2 sequence (Q8CJ12 618-1009 V776A limits assumed): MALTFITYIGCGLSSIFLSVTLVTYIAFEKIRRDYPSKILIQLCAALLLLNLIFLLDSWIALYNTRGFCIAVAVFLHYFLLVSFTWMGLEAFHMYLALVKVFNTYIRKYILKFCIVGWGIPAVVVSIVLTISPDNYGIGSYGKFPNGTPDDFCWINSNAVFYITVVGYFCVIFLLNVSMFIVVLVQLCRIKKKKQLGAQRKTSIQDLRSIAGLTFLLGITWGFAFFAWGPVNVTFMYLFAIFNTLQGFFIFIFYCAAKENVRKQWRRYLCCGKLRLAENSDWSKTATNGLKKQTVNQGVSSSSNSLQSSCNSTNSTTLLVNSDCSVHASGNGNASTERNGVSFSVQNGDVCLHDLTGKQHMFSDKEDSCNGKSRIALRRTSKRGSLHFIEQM
Conditions: mutant V762A. Here is the method: as §1, §2

For assay [3], the target named is T3, Rluc-ADGRG2-ΔGPS-β F747A (Mus musculus, UniProt Q8CJ12, F761A).
T3 construct: the entire ECD (including the entire GPS motif) was removed (ADGRG2-ΔGPS-β); expressed in transfected cells; host or cells: HEK293
T3 sequence (Q8CJ12 618-1009 F761A limits assumed): as the sequence (Q8CJ12 618-1009 V776A limits assumed) above, with F144A, A159V counted along it
Conditions: mutant F747A. Here is the method:
as §1, §2

Assay [4] concerns the target T4, Rluc-ADGRG2-ΔGPS-β F772A (Mus musculus, UniProt Q8CJ12, F786A).
T4 construct: expressed in transfected cells; host or cells: HEK293
Conditions: mutant F772A. Here is the method:
as §1, §2

In assay [5] the target is T5, Rluc-ADGRG2-ΔGPS-β L679A (Mus musculus, UniProt Q8CJ12, L693A).
T5 construct: the entire ECD (including the entire GPS motif) was removed (ADGRG2-ΔGPS-β); expressed in transfected cells; host or cells: HEK293
T5 sequence (Q8CJ12 618-1009 L693A limits assumed): as the sequence (Q8CJ12 618-1009 V776A limits assumed) above, with L76A, A159V counted along it
Conditions: mutant L679A. Here is the method:
as §1, §2

In assay [6] the target is T6, Rluc-ADGRG2-ΔGPS-β V731A (Mus musculus, UniProt Q8CJ12, V745A).
T6 construct: the entire ECD (including the entire GPS motif) was removed (ADGRG2-ΔGPS-β); expressed in transfected cells; host or cells: HEK293
T6 sequence (Q8CJ12 618-1009 V745A limits assumed): as the sequence (Q8CJ12 618-1009 V776A limits assumed) above, with V128A, A159V counted along it
Conditions: mutant V731A. Here is the method:
as §1, §2

In assay [7] the target is T7, Rluc-ADGRG2-ΔGPS-β I730A (Mus musculus, UniProt Q8CJ12, I744A).
T7 construct: the entire ECD (including the entire GPS motif) was removed (ADGRG2-ΔGPS-β); expressed in transfected cells; host or cells: HEK293
T7 sequence (Q8CJ12 618-1009 I744A limits assumed): as the sequence (Q8CJ12 618-1009 V776A limits assumed) above, with I127A, A159V counted along it
Conditions: mutant I730A. Here is the method: as §1, §2

Where [8] appears, read: Kd(mutated ADGRG2-ΔGPS-β)/Kd(WT).

T4 sequence (Q8CJ12 614-1009 F786A): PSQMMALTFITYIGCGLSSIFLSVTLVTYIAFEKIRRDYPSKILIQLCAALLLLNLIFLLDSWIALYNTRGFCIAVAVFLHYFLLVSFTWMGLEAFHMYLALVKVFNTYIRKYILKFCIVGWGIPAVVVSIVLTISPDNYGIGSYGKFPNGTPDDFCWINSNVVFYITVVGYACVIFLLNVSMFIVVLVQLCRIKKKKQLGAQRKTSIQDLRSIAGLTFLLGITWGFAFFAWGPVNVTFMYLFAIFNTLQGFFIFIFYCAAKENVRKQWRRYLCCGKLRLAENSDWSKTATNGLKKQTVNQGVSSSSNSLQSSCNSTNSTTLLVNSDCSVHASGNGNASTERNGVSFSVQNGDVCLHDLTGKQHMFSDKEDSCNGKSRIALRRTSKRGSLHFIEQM
T1 sequence (Q8CJ12 618-1009 S774A limits assumed): as the sequence (Q8CJ12 618-1009 V776A limits assumed) above, with S157A, A159V counted along it

Regarding `CC[C@H](C)[C@H](NC(=O)CNC(=O)[C@H](Cc1ccc(C)cc1)NC(=O)[C@H](CO)NC(=O)[C@@H](N)C(C)C)C(=O)N[C@@H](CC(C)C)C(=O)N[C@@H](CC(C)C)C(=O)N[C@@H](CC(=O)O)C(=O)N[C@@H](CC(C)C)C(=O)N[C@@H](CO)C(=O)N[C@@H](CCCNC(=N)N)C(=O)N[C@H](C(=O)N[C@@H](CO)C(=O)N[C@@H](CC(C)C)C(=O)N1CCC[C@H]1C(=O)N[C@@H](CCCCNC(=S)Nc1ccc2c(c1)C(=O)OC21c2ccc(O)cc2Oc2cc(O)ccc21)C(=O)O)[C@@H](C)O` [FITC-VPM-p15] (H-VS[Phe(4-Me)]GILLDLSRTSLPK(FITC)-OH; N-terminus and C-terminus assumed), the Fmut was found to be 1.444 in assay [1] (setting [8]); 1.268 in assay [2] (setting [8]); 0.811 in assay [3] (setting [8]); 0.903 in assay [4] (setting [8]); 1.242 in assay [5] (setting [8]); 1.281 in assay [7] (setting [8]). Moreover, the Bmax came to 0.716±0.011 in assay [1] (binding Bmax (BRET)); 0.798±0.021 in assay [2] (binding Bmax (BRET)); 0.813±0.041 in assay [3] (binding Bmax (BRET)); 0.795±0.021 in assay [4] (binding Bmax (BRET)); 0.7804±0.017 in assay [5] (binding Bmax (BRET)); 0.7903±0.018 in assay [6]. Besides, the Bmax in assay [7] (binding Bmax (BRET)) is 0.7950±0.031.
